Some test systems named below: IGROV1 ovarian; SK-MEL-5 melanoma; CCRF-CEM leukemia; OVCAR-5 ovarian; SNB-75 CNS; COLO 205 colon; HT29 colon; NCI-H522 lung; A498 renal.
Test in all cases: DTP human tumour cell line panel, 48 h

Data on 22 compounds can be found in PubChem BioAssay (NCI).

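Five compound concentrations were applied to cells in 96-well plates for 48 hours; endpoints were derived by simple linear interpolation of the resulting dose-response curve. GI50 = concentration required for 50% inhibition of growth. TGI marks complete inhibition of growth.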 A value given as a limit tells only on which side of the number the result lay.

In general, TGI refers to the concentration at which net growth stops. Higher therefore signals less potent growth arrest. On to `FC(F)(F)C1(Br)C(c2ccccc2)=C1c1ccccc1`, for which the concentration for total growth inhibition (TGI) came out at 74.3 µM in the experiment on IGROV1 ovarian; 28.8 µM with SK-MEL-5 melanoma; 30.2 µM in the experiment on CCRF-CEM leukemia; 52 µM in the experiment on OVCAR-5 ovarian; 88.6 µM in the experiment on SNB-75 CNS; 34.9 µM in the experiment with COLO 205 colon. Moreover, in the experiment on HT29 colon, the TGI was 34.8 µM.

Turning to `COC(=O)C(Cc1nc2ccccc2[nH]c1=O)C(=O)C(=O)Nc1ccc([N+](=O)[O-])cc1[N+](=O)[O-]` (centres undefined), the TGI came to 20.8 µM with NCI-H522 lung; 40.9 µM in the experiment with A498 renal; 55.4 µM with IGROV1 ovarian; 33.1 µM in the experiment on SK-MEL-5 melanoma; 51.9 µM in the experiment on CCRF-CEM leukemia; 51 µM in the experiment on OVCAR-5 ovarian. For the same compound, the results for the total growth inhibition concentration (TGI) in the experiment with SNB-75 CNS, in the experiment with COLO 205 colon and in the experiment with HT29 colon were 39.3 µM, 35.2 µM and 35 µM, respectively.

Regarding `O=[N+]([O-])CCc1cccc([N+](=O)[O-])c1`, the TGI in the experiment with NCI-H522 lung, in the experiment on A498 renal, in the experiment on IGROV1 ovarian, with SK-MEL-5 melanoma, in the experiment with CCRF-CEM leukemia and in the experiment on OVCAR-5 ovarian was above 100 µM throughout. Also, the TGI in the experiment on SNB-75 CNS, with COLO 205 colon and in the experiment on HT29 colon was above 100 µM throughout.

In the case of `C[N+](C)(C)CC(=O)N/N=C(\C(=O)NC1=C(Cl)C(=O)c2ccccc2C1=O)C(C#N)c1csc(-c2ccc([N+](=O)[O-])cc2)n1` (centres undefined), the total growth inhibition concentration (TGI) in the experiment on NCI-H522 lung, with A498 renal, in the experiment on IGROV1 ovarian, in the experiment with SK-MEL-5 melanoma, with CCRF-CEM leukemia and with OVCAR-5 ovarian was above 100 µM throughout. Further, the TGI with SNB-75 CNS, in the experiment with COLO 205 colon and in the experiment on HT29 colon was above 100 µM throughout.

With `CCOc1cccc2ccc[n+](CC)c12`, the concentration for total growth inhibition (TGI) in the experiment on NCI-H522 lung, in the experiment on IGROV1 ovarian, in the experiment on SK-MEL-5 melanoma, with CCRF-CEM leukemia, with OVCAR-5 ovarian and in the experiment on SNB-75 CNS was above 100 µM throughout. For the same compound, the TGI in the experiment on COLO 205 colon and with HT29 colon was above 100 µM in each case.

With `Cc1cc(Cl)ccc1NC(=O)C(=O)C(C(=O)c1ccc2ccccc2c1)C1OC(=O)c2ccccc21` (centres undefined), the total growth inhibition concentration (TGI) in the experiment on NCI-H522 lung is 23.4 µM; with A498 renal it was 25.6 µM; in the experiment on IGROV1 ovarian it was above 100 µM; with SK-MEL-5 melanoma, 26.9 µM; with CCRF-CEM leukemia, 22.2 µM; in the experiment on OVCAR-5 ovarian, 48.4 µM. The TGI stood at 49.2 µM with SNB-75 CNS, 28.5 µM in the experiment on COLO 205 colon and 72.6 µM in the experiment with HT29 colon.

Usually GI50 stands for the concentration that inhibits growth by half. Regarding `CCC(CNc1cc(OC)cc2cccnc12)NC1CCCCC1` (centres undefined), the GI50 is 29.7 µM in the experiment with A498 renal; 10.6 µM in the experiment on IGROV1 ovarian; 15.8 µM in the experiment with SK-MEL-5 melanoma; 61 µM in the experiment on OVCAR-5 ovarian; 21.3 µM in the experiment with SNB-75 CNS; 11.3 µM with COLO 205 colon. Besides, the total growth inhibition concentration (TGI) in the experiment on A498 renal was above 100 µM; in the experiment on IGROV1 ovarian, 44.9 µM; with SK-MEL-5 melanoma it was 30.6 µM; with OVCAR-5 ovarian it was above 100 µM; in the experiment with SNB-75 CNS it was above 100 µM; in the experiment on COLO 205 colon it was 24.6 µM.

For the compound `COC(C(=O)NCCCCNC(=O)C(OC)c1ccccc1)c1ccccc1` (centres undefined), the TGI with NCI-H522 lung, in the experiment on A498 renal, with IGROV1 ovarian, with SK-MEL-5 melanoma, in the experiment with CCRF-CEM leukemia and with OVCAR-5 ovarian was above 100 µM in each case. In addition, the total growth inhibition concentration (TGI) with SNB-75 CNS, in the experiment with COLO 205 colon and in the experiment with HT29 colon was above 100 µM in each case.

For the compound `O=C(Nc1cccc(O)c1)C(=O)C(C(=O)c1ccc(Cl)c(Cl)c1)C1OC(=O)c2ccccc21` (centres undefined), the TGI in the experiment with NCI-H522 lung worked out at 21.8 µM; with A498 renal it was 41.9 µM; in the experiment on IGROV1 ovarian it was 56.5 µM; in the experiment with SK-MEL-5 melanoma, 37.6 µM; in the experiment on CCRF-CEM leukemia, 55.5 µM; with OVCAR-5 ovarian, 65.2 µM. The TGI with SNB-75 CNS is 71.4 µM; in the experiment with COLO 205 colon, 30.7 µM; in the experiment with HT29 colon, 68.4 µM.

As for `O=C1OC(O)C(Oc2c(Cl)cccc2Cl)=C1Cl` (centres undefined), the TGI worked out at 27.3 µM in the experiment with NCI-H522 lung; 51.1 µM in the experiment on A498 renal; 46.2 µM in the experiment with IGROV1 ovarian; 27.5 µM in the experiment with SK-MEL-5 melanoma; 53 µM in the experiment on CCRF-CEM leukemia; 46 µM in the experiment with OVCAR-5 ovarian. The results for the total growth inhibition concentration (TGI) in the experiment with SNB-75 CNS, in the experiment with COLO 205 colon and in the experiment with HT29 colon were 54.6 µM, 30.2 µM and 34.3 µM, respectively.

On to `CC(=O)[CH-]C(=O)c1ccccc1.CC(=O)[CH-]C(=O)c1ccccc1.CCOCC[O-].CCOCC[O-].[Ti+4]`, for which the GI50 in the experiment with NCI-H522 lung was 17 µM; with A498 renal, 22.9 µM; in the experiment with IGROV1 ovarian, 31.9 µM; with SK-MEL-5 melanoma, 22.5 µM; with OVCAR-5 ovarian it was 26.8 µM; in the experiment with SNB-75 CNS, 16.6 µM. The GI50 with HT29 colon was 20.1 µM. Moreover, the TGI is 36.5 µM in the experiment with NCI-H522 lung; 47.9 µM in the experiment on A498 renal; above 100 µM in the experiment on IGROV1 ovarian; 53.3 µM with SK-MEL-5 melanoma; 60.7 µM with OVCAR-5 ovarian; 43.8 µM in the experiment on SNB-75 CNS. The compound also displayed a concentration for total growth inhibition (TGI) in the experiment with HT29 colon of 46.2 µM.

Turning to `CCCN(CCCC(NC(C)=O)C(=O)NCc1ccccc1)C(=O)NCCCl` (centres undefined), the concentration for total growth inhibition (TGI) with NCI-H522 lung, with IGROV1 ovarian, in the experiment with CCRF-CEM leukemia, in the experiment with SNB-75 CNS, in the experiment on COLO 205 colon and in the experiment on HT29 colon was above 100 µM each time.

With `CC(C)(C)C(=O)OCC1CCC(n2cnc3c(=O)[nH]c(N)nc32)O1` (centres undefined), the TGI with A498 renal, in the experiment on IGROV1 ovarian, in the experiment on SK-MEL-5 melanoma, with CCRF-CEM leukemia, in the experiment on OVCAR-5 ovarian and with SNB-75 CNS was above 100 µM in each case. Also, the TGI in the experiment with COLO 205 colon and in the experiment on HT29 colon was above 100 µM in each case.

Take `CC(C)(C)C1CCC2c3c([nH]c4ccccc34)C3C(=O)N(c4ccccc4)C(=O)C3C2C1` (centres undefined): the TGI was 5.99 µM in the experiment on A498 renal; 39.4 µM in the experiment with IGROV1 ovarian; 11 µM in the experiment on CCRF-CEM leukemia; above 100 µM in the experiment on OVCAR-5 ovarian; 6.04 µM with SNB-75 CNS; 17.8 µM with COLO 205 colon. Further, the TGI in the experiment with HT29 colon is above 100 µM.

For the compound `C=C[C@@]1(O)CCCC2=C(C(=O)OCC)CC[C@]21C`, the concentration for total growth inhibition (TGI) in the experiment with NCI-H522 lung, in the experiment with IGROV1 ovarian, with SK-MEL-5 melanoma, with CCRF-CEM leukemia, in the experiment on OVCAR-5 ovarian and with COLO 205 colon was above 100 µM each time. In the experiment on HT29 colon, this compound gave a TGI above 100 µM.

On to `O=C1C(Cl)C(c2ccccc2O)N1n1cnc2ccccc2c1=O` (centres undefined), for which the TGI is 93.8 µM in the experiment on NCI-H522 lung; above 100 µM in the experiment with IGROV1 ovarian; above 100 µM in the experiment with SK-MEL-5 melanoma; above 100 µM in the experiment on CCRF-CEM leukemia; above 100 µM in the experiment with OVCAR-5 ovarian; 49.6 µM with SNB-75 CNS. Besides, the TGI in the experiment on COLO 205 colon and in the experiment with HT29 colon was above 100 µM each time.

In the case of `CCOC(=N)/C(=C1\OC(N)=C(c2ccc(Cl)cc2)C1=O)c1ccc(Cl)cc1`, the TGI is 29.4 µM in the experiment with NCI-H522 lung; 32.5 µM in the experiment on A498 renal; above 100 µM with IGROV1 ovarian; 65.6 µM with CCRF-CEM leukemia; 35 µM in the experiment on OVCAR-5 ovarian; 38.5 µM in the experiment with SNB-75 CNS. Further, the TGI worked out at 30.2 µM with COLO 205 colon and 52.6 µM in the experiment with HT29 colon.

Turning to `C/C=C/CC(C)[C@@H](O)[C@H](NC)C(=O)O` (some centres undefined), the TGI in the experiment with NCI-H522 lung, in the experiment with IGROV1 ovarian, with SK-MEL-5 melanoma, with CCRF-CEM leukemia, in the experiment with OVCAR-5 ovarian and in the experiment with SNB-75 CNS was above 100 µM throughout. Moreover, the TGI in the experiment with COLO 205 colon and in the experiment with HT29 colon was above 100 µM each time.

`Cn1c(=O)c2nc(-c3ccc(Cl)cc3)oc2n(C)c1=O`: the TGI in the experiment on NCI-H522 lung, with A498 renal, with SK-MEL-5 melanoma, with CCRF-CEM leukemia, in the experiment on OVCAR-5 ovarian and in the experiment on SNB-75 CNS was above 100 µM throughout. In the experiment on HT29 colon, the TGI was above 100 µM.

Regarding `Cn1c2ccc(Br)cc2c2c3c(c4c5ccccc5[nH]c4c21)C(=O)N(O)C3=O`, the GI50 in the experiment with NCI-H522 lung is 0.0506 µM; in the experiment with IGROV1 ovarian, 0.262 µM; with SK-MEL-5 melanoma, 0.128 µM; in the experiment with CCRF-CEM leukemia, 41.2 nM; in the experiment on OVCAR-5 ovarian, 1.33 µM; with SNB-75 CNS, 0.164 µM. The GI50 was 0.231 µM with COLO 205 colon and 0.23 µM with HT29 colon. For the same compound, the concentration for total growth inhibition (TGI) in the experiment on NCI-H522 lung stood at 0.286 µM; with IGROV1 ovarian, 1.07 µM; in the experiment with SK-MEL-5 melanoma, 0.266 µM; in the experiment on CCRF-CEM leukemia, 0.956 µM; in the experiment with OVCAR-5 ovarian it was 3.73 µM; in the experiment with SNB-75 CNS, 0.425 µM. For the same compound, the TGI was found to be 0.73 µM with COLO 205 colon and 0.658 µM in the experiment with HT29 colon.

With `CC(=O)OC1CC2C(C)(C)C(=O)C=C[C@]2(C)C2CCC3(C)C(=CC(=O)C3c3ccoc3)[C@]12C` (some centres undefined), the TGI was 33.9 µM in the experiment with A498 renal; 57.9 µM in the experiment on IGROV1 ovarian; 26.4 µM in the experiment on SK-MEL-5 melanoma; 30 µM in the experiment on CCRF-CEM leukemia; 37.8 µM in the experiment with OVCAR-5 ovarian; 36.1 µM with SNB-75 CNS. For the same compound, the TGI in the experiment on COLO 205 colon was 34.6 µM; in the experiment on HT29 colon it was 32.1 µM.

For `O=c1[nH]c2cc(Cl)ccc2nc1/C(=N\O)C(O)c1ccc([N+](=O)[O-])cc1` (centres undefined), the TGI with A498 renal, in the experiment with IGROV1 ovarian, with SK-MEL-5 melanoma, in the experiment on CCRF-CEM leukemia, in the experiment on SNB-75 CNS and in the experiment with COLO 205 colon was above 100 µM throughout. Moreover, the TGI with HT29 colon was above 100 µM.
